Measured values as given in ChEMBL document CHEMBL1201862, “PubChem BioAssay data set” (2004).
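1) Cells in 96-well plates. 2) Compound, 48 h, 5 concentrations. 3) Linear interpolation between surrounding doses. 4) Unreached endpoint = highest concentration. Here, GI50 denotes the concentration required for 50% inhibition of growth.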 Active and inactive are the calls of the source. Cut-off read from the data, not from the text of the source: active = GI50 up to about 1.1 µM and inactive = higher.

Columns and labels:
Experiment in all cases: NCI anticancer screen, dose series, 48 h
K562 = system: K562
MDA-N = system: MDA-N
BT-549 = system: BT-549
M14 = system: M14
SF-539 = system: SF-539
MOLT-4 = system: MOLT-4
PC-3 = system: PC-3
HOP-92 = system: HOP-92
ACHN = system: ACHN
RXF 393 = system: RXF 393
Malme-3M = system: Malme-3M
EKVX = system: EKVX
HT-29 = system: HT-29
HCT-15 = system: HCT-15
OVCAR-8 = system: OVCAR-8
OVCAR-5 = system: OVCAR-5
SK-MEL-5 = system: SK-MEL-5
SW-620 = system: SW-620
SK-MEL-2 = system: SK-MEL-2
NCI-H23 = system: NCI-H23

Compound | GI50 (K562) | GI50 (MDA-N) | GI50 (BT-549) | GI50 (M14) | GI50 (SF-539) | GI50 (MOLT-4) | GI50 (PC-3) | GI50 (HOP-92) | GI50 (ACHN) | GI50 (RXF 393) | GI50 (Malme-3M) | GI50 (EKVX) | GI50 (HT-29) | GI50 (HCT-15) [µM] | GI50 (OVCAR-8) | GI50 (OVCAR-5) | GI50 (SK-MEL-5) | GI50 (SW-620) | GI50 (SK-MEL-2) | GI50 (NCI-H23)
COc1cc(N(C)C)c(OC)cc1C=C1C=CC=C1 | 58.5 µM (inactive) | 44.1 µM (inactive) | > 100 µM (inactive) | > 100 µM (inactive) | > 100 µM (inactive) | 38.6 µM (inactive) | > 100 µM (inactive) | 61.8 µM (inactive) | > 100 µM (inactive) | > 100 µM (inactive) | > 100 µM (inactive) | > 100 µM (inactive) | 60.4 µM (inactive) | > 10 | > 100 µM (inactive) | > 100 µM (inactive) | > 100 µM (inactive) | > 100 µM (inactive) | > 100 µM (inactive) | > 100 µM (inactive)
CCNC(=S)/N=c1\sc(NCC)nc2sc3c(c12)CCN(N1CCc2c(sc4nc(NCC)s/c(=N\C(=S)NCC)c24)C1)C3 | 27.7 µM (inactive) | 91.4 µM (inactive) | > 100 µM (inactive) | 46.5 µM (inactive) | 15.5 µM (inactive) | 34.1 µM (inactive) | > 100 µM (inactive) | 5.31 µM (inactive) | 62.8 µM (inactive) | 8.93 µM (inactive) | > 100 µM (inactive) | > 100 µM (inactive) | 41.1 µM (inactive) | > 100 | 60.4 µM (inactive) | > 100 µM (inactive) | 31.8 µM (inactive) | 34.7 µM (inactive) | > 100 µM (inactive) | > 100 µM (inactive)
COc1cc([C@@H]2c3cc4c(cc3[C@@H](Nc3ccc(/N=C\c5ccc(C(=O)O[C@@H](C(=O)O[C@H]6C[C@@]7(O)[C@@H](OC(=O)c8ccccc8)[C@@H]8[C@]9(OC(C)=O)CO[C@@H]9C[C@H](O)[C@@]8(C)C(=O)[C@H](OC(C)=O)C(=C6C)C7(C)C)[C@@H](NC(=O)c6ccccc6)c6ccccc6)cc5)cc3)[C@H]3COC(=O)[C@H]23)OCO4)cc(OC)c1O | 2.28 µM (inactive) | 9.33 µM (inactive) | 9.48 µM (inactive) | 5.48 µM (inactive) | 1.47 µM (inactive) | 0.14 µM (active) | > 46.1 µM (inactive) | 6.38 µM (inactive) | 0.455 µM (active) | 6.12 µM (inactive) | > 50 µM (inactive) | 16.3 µM (inactive) | 9.04 µM (inactive) | 7.96 | 6.15 µM (inactive) | 20.2 µM (inactive) | 2.96 µM (inactive) | 8.73 µM (inactive) | > 33.7 µM (inactive) | 2.75 µM (inactive)
COc1cc(S(=O)(=O)Nc2ccc(-c3csc(N4C(=O)C(Cl)C4c4cccc(Oc5ccccc5)c4)n3)cc2)ccc1Cl (stereo not given) | 27.9 µM (inactive) | 22.3 µM (inactive) | 21.2 µM (inactive) | 22.9 µM (inactive) | 16.1 µM (inactive) | 15.3 µM (inactive) | 17.1 µM (inactive) | 15.3 µM (inactive) | 24 µM (inactive) | 3.13 µM (inactive) | > 100 µM (inactive) | 20.7 µM (inactive) | 49.5 µM (inactive) | > 100 | 30.3 µM (inactive) | 38.5 µM (inactive) | 29.1 µM (inactive) | 36.1 µM (inactive) | 31 µM (inactive) | 16 µM (inactive)
O=C1C(Cl)C2(CC(/C=C/c3ccccc3)=NN2c2cccc(S(=O)(=O)O)c2)N1c1nc2ccccc2s1 (stereo not given) | 21.4 µM (inactive) | 24.2 µM (inactive) | 14.8 µM (inactive) | 17.2 µM (inactive) | 15.3 µM (inactive) | 20.7 µM (inactive) | 16.1 µM (inactive) | 11.7 µM (inactive) | 16.6 µM (inactive) | 7.83 µM (inactive) | 17.3 µM (inactive) | 19.2 µM (inactive) | 19.4 µM (inactive) | 15.9 | 11.9 µM (inactive) | 18.1 µM (inactive) | 15.5 µM (inactive) | 28.8 µM (inactive) | 17.3 µM (inactive) | 13.2 µM (inactive)
